Conditions: Liquid, Closed cell (Static) method

CCOC(=O)CCC(=O)O [4-ethoxy-4-oxobutanoic acid]
Conditions | vapor or sublimation pressure [kPa]
417.7 K | 1.587
421.2 K | 2.089
425.1 K | 2.591
428.5 K | 3.094
433 K | 3.596
435.6 K | 4.098
436.7 K | 4.601
439.8 K | 5.103
440.3 K | 5.605
443 K | 6.107
444.3 K | 6.61
445.9 K | 7.112
447.6 K | 7.614
449.1 K | 8.117
450.5 K | 8.619
452.1 K | 9.121
453.2 K | 9.624
454.7 K | 10.13
455.7 K | 10.63
456.5 K | 11.13
457.2 K | 11.63
458.2 K | 12.14
458.4 K | 12.64
459.8 K | 13.14
460.1 K | 13.64
460.3 K | 14.14
461.1 K | 14.65
462 K | 15.15
463.3 K | 15.65
463.8 K | 16.15
464.2 K | 16.66
464.5 K | 17.16
465.2 K | 17.66
465.8 K | 18.16
466.7 K | 18.67
467.3 K | 19.17
467.8 K | 19.67
468.3 K | 20.17
468.8 K | 20.67
469.5 K | 21.18
469.7 K | 21.68
469.8 K | 22.18
470.1 K | 22.68
470.3 K | 23.19
470.4 K | 23.69
470.5 K | 24.19
471.1 K | 24.69
471.4 K | 25.2
471.9 K | 25.7
